1 compound from paper PMC5218480 (PLoS ONE, 2017) can be followed below.

The test deals with MV-4-11 cells. Put plainly: Gene expression microarray analysis (Affymetrix PrimeView) and GSEA. Also noted: RFU PODN (11730768_x_at) / Fold change /veh PODN (11730768_x_at) / RFU LINC00158 (11744669_a_at) / Fold change /veh LINC00158 (11744669_a_at) / RFU DUSP10 (11751237_a_at) / Fold change /veh DUSP10 (11751237_a_at) / RFU ID3 (11757404_x_at) / Fold change /veh ID3 (11757404_x_at) / RFU PLEKHG5 (11737974_s_at) / Fold change /veh PLEKHG5 (11737974_s_at) / RFU LRRC4B (11730491_at) / Fold change /veh LRRC4B (11730491_at) / RFU GIMAP4 (11747438_a_at) / Fold change /veh GIMAP4 (11747438_a_at) / RFU KRT8 (11758183_x_at) / Fold change /veh KRT8 (11758183_x_at) / RFU CNN1 (11734310_a_at) / Fold change /veh CNN1 (11734310_a_at) / RFU VPS37D (11726825_at) / Fold change /veh VPS37D (11726825_at) / RFU C10orf10 (11716522_x_at) / Fold change /veh C10orf10 (11716522_x_at) / RFU KIR2DL2 /// KIR2DL4 /// KIR2DL5A /// KIR2DL5B /// KIR2DS1 /// KIR2DS2 /// KIR2DS3 /// KIR2DS4 /// KIR3DL3 /// KIR3DL3 /// KIR3DS1 (11738374_at) / Fold change /veh KIR2DL2 /// KIR2DL4 /// KIR2DL5A /// KIR2DL5B /// KIR2DS1 /// KIR2DS2 /// KIR2DS3 /// KIR2DS4 /// KIR3DL3 /// KIR3DL3 /// KIR3DS1 (11738374_at) / RFU C1QL1 (11718748_at) / Fold change /veh C1QL1 (11718748_at) / RFU TMPRSS4 (11747572_a_at) / Fold change /veh TMPRSS4 (11747572_a_at) / RFU HAMP (11756126_x_at) / Fold change /veh HAMP (11756126_x_at) / RFU RNFT2 (11725882_a_at) / Fold change /veh RNFT2 (11725882_a_at) / RFU NR4A2 (11747474_a_at) / Fold change /veh NR4A2 (11747474_a_at) / RFU ABCC12 (11746883_a_at) / Fold change /veh ABCC12 (11746883_a_at) / RFU TMEM136 (11760407_x_at) / Fold change /veh TMEM136 (11760407_x_at) / RFU CLDN22 /// WWC2 (11732394_at) / Fold change /veh CLDN22 /// WWC2 (11732394_at) / RFU HLA-DPB1 (11760878_x_at) / Fold change /veh HLA-DPB1 (11760878_x_at) / RFU SPINT1 (11716480_a_at) / Fold change /veh SPINT1 (11716480_a_at) / RFU GAP43 (11754022_s_at) / Fold change /veh GAP43 (11754022_s_at) / RFU A4GNT (11735810_at) / Fold change /veh A4GNT (11735810_at) / RFU PRB3 (11715151_x_at) / Fold change /veh PRB3 (11715151_x_at) / RFU TUBB4B (11761932_at) / Fold change /veh TUBB4B (11761932_at) / RFU CAPN14 (11732068_a_at) / Fold change /veh CAPN14 (11732068_a_at) / RFU TMCC2 (11721928_a_at) / Fold change /veh TMCC2 (11721928_a_at) / RFU IRGQ (11745062_a_at) / Fold change /veh IRGQ (11745062_a_at) / RFU FAM174B (11720279_a_at) / Fold change /veh FAM174B (11720279_a_at) / RFU TMPRSS4 (11748680_a_at) / Fold change /veh TMPRSS4 (11748680_a_at) / RFU FAM212B (11763350_a_at) / Fold change /veh FAM212B (11763350_a_at) / RFU PLEKHG5 (11743358_a_at) / Fold change /veh PLEKHG5 (11743358_a_at) / RFU ZSCAN30 (11745921_a_at) / Fold change /veh ZSCAN30 (11745921_a_at) / RFU CMKLR1 (11741424_a_at) / Fold change /veh CMKLR1 (11741424_a_at) / RFU LOC101060620 /// MAPK8IP1 (11723275_at) / Fold change /veh LOC101060620 /// MAPK8IP1 (11723275_at) / RFU SPTSSB (11747773_x_at) / Fold change /veh SPTSSB (11747773_x_at) / RFU PRSS12 (11739890_at) / Fold change /veh PRSS12 (11739890_at) / RFU BIN1 (11741810_x_at) / Fold change /veh BIN1 (11741810_x_at) / RFU WNT11 (11732464_a_at) / Fold change /veh WNT11 (11732464_a_at) / RFU C10orf10 (11716521_a_at) / Fold change /veh C10orf10 (11716521_a_at) / RFU C5orf56 (11738089_at) / Fold change /veh C5orf56 (11738089_at) / RFU CYB561 (11721691_x_at) / Fold change /veh CYB561 (11721691_x_at) / RFU ANKRD19P (11752326_a_at) / Fold change /veh ANKRD19P (11752326_a_at) / RFU OR2T12 /// OR2T33 /// OR2T8 (11738714_s_at) / Fold change /veh OR2T12 /// OR2T33 /// OR2T8 (11738714_s_at) / RFU VCAN (11748164_a_at) / Fold change /veh VCAN (11748164_a_at) / RFU JSRP1 (11732532_at) / Fold change /veh JSRP1 (11732532_at) / RFU KRTAP10-11 (11738290_x_at) / Fold change /veh KRTAP10-11 (11738290_x_at) / RFU MYO3A (11730013_a_at) / Fold change /veh MYO3A (11730013_a_at) / RFU EBF3 (11725865_a_at) / Fold change /veh EBF3 (11725865_a_at) / RFU CAMK2N1 (11719241_x_at) / Fold change /veh CAMK2N1 (11719241_x_at) / RFU C5orf56 (11738088_a_at) / Fold change /veh C5orf56 (11738088_a_at) / RFU OLFML3 (11715873_a_at) / Fold change /veh OLFML3 (11715873_a_at) / RFU LOC100653217 /// NTM (11731650_a_at) / Fold change /veh LOC100653217 /// NTM (11731650_a_at) / RFU MAPK11 (11762145_a_at) / Fold change /veh MAPK11 (11762145_a_at) / RFU FIZ1 (11724087_x_at) / Fold change /veh FIZ1 (11724087_x_at) / RFU OASL (11726364_x_at) / Fold change /veh OASL (11726364_x_at) / RFU SOX15 (11748057_x_at) / Fold change /veh SOX15 (11748057_x_at) / RFU CD79A (11719716_a_at) / Fold change /veh CD79A (11719716_a_at) / RFU HIST1H1D (11736915_at) / Fold change /veh HIST1H1D (11736915_at) / RFU CASKIN2 (11723855_a_at) / Fold change /veh CASKIN2 (11723855_a_at) / RFU LOC730098 (11760151_x_at) / Fold change /veh LOC730098 (11760151_x_at) / RFU OR4N2 (11742367_at) / Fold change /veh OR4N2 (11742367_at) / RFU PRRT2 (11749266_a_at) / Fold change /veh PRRT2 (11749266_a_at) / RFU SNX32 (11753110_a_at) / Fold change /veh SNX32 (11753110_a_at) / RFU CDHR5 (11726645_a_at) / Fold change /veh CDHR5 (11726645_a_at) / RFU RCAN1 (11760418_a_at) / Fold change /veh RCAN1 (11760418_a_at) / RFU FAM167A (11723789_a_at) / Fold change /veh FAM167A (11723789_a_at) / RFU FAM26E (11764081_at) / Fold change /veh FAM26E (11764081_at) / RFU ISYNA1 (11749810_s_at) / Fold change /veh ISYNA1 (11749810_s_at) / RFU ACY1 (11761880_at) / Fold change /veh ACY1 (11761880_at) / RFU 11764098_at / Fold change /veh 11764098_at / RFU SAMD14 (11745864_x_at) / Fold change /veh SAMD14 (11745864_x_at) / RFU NPB (11741838_a_at) / Fold change /veh NPB (11741838_a_at) / RFU TMPRSS6 (11731388_a_at) / Fold change /veh TMPRSS6 (11731388_a_at) / RFU KRTAP10-2 (11738614_at) / Fold change /veh KRTAP10-2 (11738614_at) / RFU ARHGAP8 /// PRR5-ARHGAP8 (11727945_x_at) / Fold change /veh ARHGAP8 /// PRR5-ARHGAP8 (11727945_x_at) / RFU KRTAP5-7 /// NADSYN1 (11734609_at) / Fold change /veh KRTAP5-7 /// NADSYN1 (11734609_at) / RFU RASL12 (11751679_a_at) / Fold change /veh RASL12 (11751679_a_at) / RFU CDKN2B (11736163_a_at) / Fold change /veh CDKN2B (11736163_a_at) / RFU PRF1 (11729649_at) / Fold change /veh PRF1 (11729649_at) / RFU, ZNF638 /// ZNF638-IT1 / Fold change vs veh, ZNF638 /// ZNF638-IT1 / RFU, PANK3 / Fold change vs veh, PANK3 / RFU, SH3YL1 / Fold change vs veh, SH3YL1 / RFU, ZEB2 / Fold change vs veh, ZEB2 / RFU, NRIP1 / Fold change vs veh, NRIP1 / RFU, PTTG1IP / Fold change vs veh, PTTG1IP / RFU, CAPN2 / Fold change vs veh, CAPN2 / RFU, MED14 / Fold change vs veh, MED14 / RFU, SNORA58 / Fold change vs veh, SNORA58 / RFU, C1orf63 / Fold change vs veh, C1orf63 / RFU, LRRFIP1 / Fold change vs veh, LRRFIP1 / RFU, NDUFAF7 / Fold change vs veh, NDUFAF7 / RFU, SLC12A2 / Fold change vs veh, SLC12A2 / RFU, IBTK / Fold change vs veh, IBTK / RFU, ESF1 / Fold change vs veh, ESF1 / Fold change vs veh, TMEM50B / RFU, TAOK1 / Fold change vs veh, TAOK1 / RFU, ACBD3 / Fold change vs veh, ACBD3 / RFU, TMA16 / Fold change vs veh, TMA16 / RFU, RWDD3 / Fold change vs veh, RWDD3 / RFU, BCAT1 / Fold change vs veh, BCAT1 / RFU, EDEM3 / Fold change vs veh, EDEM3 / RFU, TMEM33 / Fold change vs veh, TMEM33 / RFU, WDR75 / Fold change vs veh, WDR75 / RFU, AHCTF1 / Fold change vs veh, AHCTF1 / RFU, TFRC / Fold change vs veh, TFRC / RFU, ZDHHC17 / Fold change vs veh, ZDHHC17 / RFU, NOM1 / Fold change vs veh, NOM1 / RFU, ARL8B / Fold change vs veh, ARL8B / RFU, ZBTB11 / Fold change vs veh, ZBTB11 / RFU, TAMM41 / Fold change vs veh, TAMM41 / RFU, KIAA1704 /// LOC100996395 / Fold change vs veh, KIAA1704 /// LOC100996395 / RFU, ING1 / Fold change vs veh, ING1 / RFU, TRMT61B / Fold change vs veh, TRMT61B / RFU, FUBP3 / Fold change vs veh, FUBP3 / RFU, TP53 / Fold change vs veh, TP53 / RFU, TNKS2 / Fold change vs veh, TNKS2 / RFU, ZFP14 / Fold change vs veh, ZFP14 / RFU, ACTR2 / Fold change vs veh, ACTR2 / RFU, PPP3R1 / Fold change vs veh, PPP3R1 / RFU, PIK3R1 / Fold change vs veh, PIK3R1 / RFU, HNRNPA1 / Fold change vs veh, HNRNPA1 / RFU, RNF170 / Fold change vs veh, RNF170 / RFU, ZNF28 / Fold change vs veh, ZNF28 / RFU, RNGTT / Fold change vs veh, RNGTT / RFU, OGT / Fold change vs veh, OGT / RFU, BRD1 / Fold change vs veh, BRD1 / RFU, MARS / Fold change vs veh, MARS / RFU, ZNF655 / Fold change vs veh, ZNF655 / RFU, FAHD1 / Fold change vs veh, FAHD1 / RFU, BDP1 / Fold change vs veh, BDP1 / RFU, LRRCC1 / Fold change vs veh, LRRCC1 / RFU, ARID1A / Fold change vs veh, ARID1A / RFU, ZNF146 / Fold change vs veh, ZNF146 / RFU, ZNF330 / Fold change vs veh, ZNF330 / RFU, GPN3 / Fold change vs veh, GPN3 / RFU, C9orf123 / Fold change vs veh, C9orf123 / RFU, N4BP2L2 / Fold change vs veh, N4BP2L2 / RFU, ARFIP1 / Fold change vs veh, ARFIP1 / RFU, FAM179B / Fold change vs veh, FAM179B / RFU, BCL10 / Fold change vs veh, BCL10 / RFU, UHRF1BP1L / Fold change vs veh, UHRF1BP1L / RFU, BET1 / Fold change vs veh, BET1 / RFU, CNOT2 / Fold change vs veh, CNOT2 / RFU, ZNF268 / Fold change vs veh, ZNF268 / Fold change vs veh, ZNF507 / RFU, DGCR2 / Fold change vs veh, DGCR2 / RFU, WDSUB1 / Fold change vs veh, WDSUB1 / Fold change vs veh, HSP90B1 /// MIR3652 / RFU, ADSS / Fold change vs veh, ADSS / RFU, GK / Fold change vs veh, GK / RFU, ZNF148 / Fold change vs veh, ZNF148 / RFU, TAF9 / Fold change vs veh, TAF9 / RFU, SLC1A5 / Fold change vs veh, SLC1A5 / RFU, SLMO2 / Fold change vs veh, SLMO2 / RFU, ABCC4 / Fold change vs veh, ABCC4 / RFU, LOC101060439 /// RAP1B / Fold change vs veh, LOC101060439 /// RAP1B / RFU, RFX7 / Fold change vs veh, RFX7 / RFU, GTPBP10 / Fold change vs veh, GTPBP10 / RFU, CNEP1R1 / Fold change vs veh, CNEP1R1 / RFU, BIVM-ERCC5 /// ERCC5 / Fold change vs veh, BIVM-ERCC5 /// ERCC5 / RFU, ILF3 / Fold change vs veh, ILF3 / RFU 11762660_at / Fold change /veh 11762660_at / RFU VCAN (11757783_s_at) / Fold change /veh VCAN (11757783_s_at) / RFU DDX43 (11728927_at) / Fold change /veh DDX43 (11728927_at) / RFU KRT8 (11758188_x_at) / Fold change /veh KRT8 (11758188_x_at) / RFU NKD1 (11759106_at) / Fold change /veh NKD1 (11759106_at) / RFU SRD5A1 (11742802_a_at) / Fold change /veh SRD5A1 (11742802_a_at) / RFU TPSAB1 /// TPSB2 (11721975_s_at) / Fold change /veh TPSAB1 /// TPSB2 (11721975_s_at) / RFU GSTM3 (11746129_a_at) / Fold change /veh GSTM3 (11746129_a_at) / RFU IL23R (11737362_x_at) / Fold change /veh IL23R (11737362_x_at) / RFU TMEM51 (11727254_a_at) / Fold change /veh TMEM51 (11727254_a_at) / RFU PIWIL2 (11732686_x_at) / Fold change /veh PIWIL2 (11732686_x_at) / RFU ORM1 (11744905_x_at) / Fold change /veh ORM1 (11744905_x_at) / RFU CCDC152 (11743942_at) / Fold change /veh CCDC152 (11743942_at) / RFU ECM1 (11717891_a_at) / Fold change /veh ECM1 (11717891_a_at) / RFU IL23R (11748794_a_at) / Fold change /veh IL23R (11748794_a_at) / RFU TNFAIP8L3 (11732012_x_at) / Fold change /veh TNFAIP8L3 (11732012_x_at) / RFU MBOAT4 (11741988_at) / Fold change /veh MBOAT4 (11741988_at) / RFU 11764193_at / Fold change /veh 11764193_at / RFU TMEM53 (11763286_at) / Fold change /veh TMEM53 (11763286_at) / RFU MAGEB2 (11727129_at) / Fold change /veh MAGEB2 (11727129_at) / RFU TMEM200A (11744735_a_at) / Fold change /veh TMEM200A (11744735_a_at) / RFU CCDC152 (11751479_a_at) / Fold change /veh CCDC152 (11751479_a_at) / RFU FAM211A (11726209_a_at) / Fold change /veh FAM211A (11726209_a_at) / RFU RGS16 (11746705_a_at) / Fold change /veh RGS16 (11746705_a_at) / RFU VCAN (11755009_s_at) / Fold change /veh VCAN (11755009_s_at) / RFU RHOB (11743442_s_at) / Fold change /veh RHOB (11743442_s_at) / RFU RGS16 (11720943_a_at) / Fold change /veh RGS16 (11720943_a_at) / RFU RGS16 (11720944_at) / Fold change /veh RGS16 (11720944_at) / RFU, VPS4B / Fold change vs veh, VPS4B / RFU, CREB1 / Fold change vs veh, CREB1 / RFU, DNAJC13 / Fold change vs veh, DNAJC13 / RFU, GNAQ / Fold change vs veh, GNAQ / RFU, CDK5R1 / Fold change vs veh, CDK5R1 / RFU, ZRANB3 / Fold change vs veh, ZRANB3 / RFU, CUL4A / Fold change vs veh, CUL4A / RFU, CCNY / Fold change vs veh, CCNY / RFU, UFL1 / Fold change vs veh, UFL1 / RFU, COG3 / Fold change vs veh, COG3 / RFU, DIAPH2 / Fold change vs veh, DIAPH2 / RFU, SKA2 / Fold change vs veh, SKA2 / RFU, AFF3 / Fold change vs veh, AFF3 / RFU, LMF1 / Fold change vs veh, LMF1 / RFU, IPO11 / Fold change vs veh, IPO11 / RFU, DFFB / Fold change vs veh, DFFB / RFU, FOXP1 / Fold change vs veh, FOXP1 / RFU, CARD8 / Fold change vs veh, CARD8 / RFU, STRN3 / Fold change vs veh, STRN3 / RFU, ADK / Fold change vs veh, ADK / RFU, RASSF2 / Fold change vs veh, RASSF2 / RFU, WIPF1 / Fold change vs veh, WIPF1 / RFU, LARP1B / Fold change vs veh, LARP1B / RFU, RASA1 / Fold change vs veh, RASA1 / RFU, RB1 / Fold change vs veh, RB1 / RFU, PPFIA1 / Fold change vs veh, PPFIA1 / RFU, MAT2A / Fold change vs veh, MAT2A / RFU, CCT5 / Fold change vs veh, CCT5 / RFU, WDR92 / Fold change vs veh, WDR92 / RFU, CUX1 / Fold change vs veh, CUX1 / RFU, TTC7A / Fold change vs veh, TTC7A / RFU, TMEM135 / Fold change vs veh, TMEM135 / RFU, DEPTOR / Fold change vs veh, DEPTOR / RFU, CPM / Fold change vs veh, CPM / RFU, DNAJB6 / Fold change vs veh, DNAJB6 / RFU, CACNA2D3 / Fold change vs veh, CACNA2D3 / RFU, DTX4 / Fold change vs veh, DTX4 / RFU, TFCP2 / Fold change vs veh, TFCP2 / RFU, GMCL1 /// GMCL1P1 / Fold change vs veh, GMCL1 /// GMCL1P1 / RFU, AEBP2 / Fold change vs veh, AEBP2 / RFU, SNHG1 /// SNORD22 /// SNORD25 /// SNORD26 /// SNORD27 /// SNORD28 /// SNORD29 /// SNORD31 / Fold change vs veh, SNHG1 /// SNORD22 /// SNORD25 /// SNORD26 /// SNORD27 /// SNORD28 /// SNORD29 /// SNORD31 / Fold change (Aza/veh), C12orf56 (ProbeSet 11735607_a_at) / Fold change (ACY-1035/veh), C12orf56 (ProbeSet 11735607_a_at) / Fold change (Aza/veh), FGFR1OP (ProbeSet 11751329_s_at) / Fold change (ACY-1035/veh), FGFR1OP (ProbeSet 11751329_s_at) / Fold change (Aza/veh), VPS36 (ProbeSet 11739960_a_at) / Fold change (ACY-1035/veh), VPS36 (ProbeSet 11739960_a_at) / RFU SYPL1 (11715823_x_at) / Fold change /veh SYPL1 (11715823_x_at) / RFU IGFBP7 (11715501_s_at) / Fold change /veh IGFBP7 (11715501_s_at) / RFU REEP3 (11722064_at) / Fold change /veh REEP3 (11722064_at) / RFU IGLL1 (11728026_x_at) / Fold change /veh IGLL1 (11728026_x_at): dose or concentration left out as unconfirmed. The format is cell-based, human. To be noted: MV-4-11 cells, 48 hours.

Regarding `Nc1ncn([C@@H]2O[C@H](CO)[C@@H](O)[C@H]2O)c(=O)n1` [azacitidine], the “RFU WNT11 (11732464_a_at)” value came to 6.46 RFU.
